Assay results published in US4587254A, “1,3,4-thiadiazole derivatives, process for the production thereof and use thereof as antiulcer agent” (Wakamoto Pharmaceutical Co., Ltd., priority 1983, dated 1986).
“And” between values parts separate entries of the source, which are not always exact repeats. Identical values can stand only once. Counter-ions that a name gives are not always drawn.

Legend:
[1] = test system: secretion of acid in the stomach; test: Inhibition of the secretion of acid in the stomach (pylorus-ligated rats); format: in vivo, rats (Donryu male); details: duodenum, 6 h; for Acidity / Gastric juice secreted / Inhibition rate (acidity) / Inhibition rate (amount of acid discharged) / Inhibition rate (gastric juice secreted) / Inhibition rate (pepsin activity) / Pepsin activity / Amount of acid discharged: five rats
Method: The pylorus was ligated. Immediately thereafter, a test sample was placed in the duodenum and the abdomen was closed. Six hour after the administration of the test sample, the stomach was taken out under […] anesthesia and the gastric juice was taken out. The gastric juice was centrifuged. The quantity, acidity and pepsin activity of the supernatant liquid were determined. […] The amount of the acid discharged per hour was calculated by multiplying the acidity by the quantity of the juice. Pepsin activity was determined by Anson's method [J. gen. […] The results of the tests of TAS are the averages of the group consisting of ten rats.

[2] = Antiulcer effects (pylorus-ligated rats); format: in vivo, rats (Donryu); details: for Inhibition rate (ulcer): duodenum, 8 h
Method: Donryu rats weighing 200 to 230 g were used. Each group consisted of 6 rats. After fasting for 72 h, the rats were subjected to an abdominal operation under etheral anesthesia. The pylorus was ligated. Immediately thereafter, a given dose of a test sample was placed in the duodenum. Thereafter, neither food nor water was given. After 8 h, the stomach was taken out under etheral anesthesia and immersed in 1% formalin solution for 10 min. The stomach was cut along the greater curvature. The area of ulcer formed in the forestomach was determined by an anatomico-microscopicobservation (magnification: ×10). The rate of control of the ulcer (%) was calculated as compared with a control.

[3] = Acute toxicity in mice (LD50); details: mouse, in vivo
Description: (§1) For example, the acute toxicities of a compound of the formula (I) wherein R2 represents --NH2 in mice and rats are as shown in Table 1. The acute toxicities of compounds of the formula (I) wherein R2 represents --NHCH3, --SH or --SCH3 are nearly equal to that shown in Table 1.

[4] = Acute toxicity in rats (LD50); details: rat, in vivo
Description: as §1

Compound: CNc1nnc(NCCCOc2cccc(CN3CCCCC3)c2)s1 [H2 --33, 2-N-{3-[3-(1-piperidinomethyl)phenoxy]-propyl}amino-5-methylamino-1,3,4-thiadiazole]
- Acidity ([1]; 6.7 mg/kg): 70.0 meq H^+ /l
- Gastric juice secreted ([1]; 6.7 mg/kg): 4.8 mL
- Inhibition rate (acidity) ([1]; 6.7 mg/kg): 14.0%
- Inhibition rate (amount of acid discharged) ([1]; 6.7 mg/kg): 35.0%
- Inhibition rate (gastric juice secreted) ([1]; 6.7 mg/kg): 17.0%
- Inhibition rate (pepsin activity) ([1]; 6.7 mg/kg): -3.2%
- Pepsin activity ([1]; 6.7 mg/kg): 6.4 mg/mL
- Acidity ([1]; 20.0 mg/kg): 52.0 meq H^+ /l
- Gastric juice secreted ([1]; 20.0 mg/kg): 2.5 mL
- Inhibition rate (acidity) ([1]; 20.0 mg/kg): 36.0%
- Inhibition rate (amount of acid discharged) ([1]; 20.0 mg/kg): 70.0%
- Inhibition rate (gastric juice secreted) ([1]; 20.0 mg/kg): 57.0%
- Inhibition rate (pepsin activity) ([1]; 20.0 mg/kg): 0%
- Pepsin activity ([1]; 20.0 mg/kg): 6.2 mg/mL
- Acidity ([1]; 60.0 mg/kg): 24.0 meq H^+ /l
- Gastric juice secreted ([1]; 60.0 mg/kg): 2.9 mL
- Inhibition rate (acidity) ([1]; 60.0 mg/kg): 70.0%
- Inhibition rate (amount of acid discharged) ([1]; 60.0 mg/kg): 88.0%
- Inhibition rate (gastric juice secreted) ([1]; 60.0 mg/kg): 50.0%
- Inhibition rate (pepsin activity) ([1]; 60.0 mg/kg): 21.0%
- Pepsin activity ([1]; 60.0 mg/kg): 4.9 mg/mL
- Amount of acid discharged ([1]; Table 3, 6.7 mg/kg): 54.0 μEq/H
- Amount of acid discharged ([1]; Table 3, 20.0 mg/kg): 25.0 μEq/H
- Amount of acid discharged ([1]; Table 3, 60.0 mg/kg): 10.0 μEq/H

Compound: CNC(=C[N+](=O)[O-])NCCSCc1ccc(CN(C)C)o1 [ranitidine, reference compound]
- Rate of control of the amount of acid discharged ([1]; Table 5, 6.7 mg/kg, ten rats): 19.3%
- Rate of control of the amount of pepsin discharged ([1]; Table 5, 6.7 mg/kg, ten rats): 1.5%
- Rate of inhibition of acidity ([1]; Table 5, 6.7 mg/kg, ten rats): 11.3%
- Rate of inhibition of the secretion of gastric juice ([1]; Table 5, 6.7 mg/kg, ten rats): 7.7%
- Rate of control of the amount of acid discharged ([1]; Table 5, 20.0 mg/kg, ten rats): 54.2%
- Rate of control of the amount of pepsin discharged ([1]; Table 5, 20.0 mg/kg, ten rats): -4.5%
- Rate of inhibition of acidity ([1]; Table 5, 20.0 mg/kg, ten rats): 28.2%
- Rate of inhibition of the secretion of gastric juice ([1]; Table 5, 20.0 mg/kg, ten rats): 23.1%
- Rate of control of the amount of acid discharged ([1]; Table 5, 60.0 mg/kg, ten rats): 67.4%
- Rate of control of the amount of pepsin discharged ([1]; Table 5, 60.0 mg/kg, ten rats): -3.0%
- Rate of inhibition of acidity ([1]; Table 5, 60.0 mg/kg, ten rats): 50.1%
- Rate of inhibition of the secretion of gastric juice ([1]; Table 5, 60.0 mg/kg, ten rats): 34.6%
- Inhibition rate (ulcer) ([2]; 100 mg/kg): 50%
- Inhibition rate (ulcer) ([2]; 200 mg/kg): 85%

Compound: CN/C(=N/CCSCc1nc[nH]c1C)NC#N [cimetidine, reference compound]
- Acidity ([1]; 6.7 mg/kg): 85.0 meq H^+ /l and 76.0 meq H^+ /l
- Gastric juice secreted ([1]; 6.7 mg/kg): 5.4 mL and 5.0 mL
- Pepsin activity ([1]; 6.7 mg/kg): 7.0 mg/mL and 5.5 mg/mL
- Acidity ([1]; 20.0 mg/kg): 77.0 meq H^+ /l and 79.0 meq H^+ /l
- Gastric juice secreted ([1]; 20.0 mg/kg): 4.8 mL and 4.5 mL
- Inhibition rate (acidity) ([1]; 20.0 mg/kg): 5.4% and 11.0%
- Inhibition rate (amount of acid discharged) ([1]; 20.0 mg/kg): 31.0% and 29.0%
- Inhibition rate (gastric juice secreted) ([1]; 20.0 mg/kg): 17.0% and 29.0%
- Inhibition rate (pepsin activity) ([1]; 20.0 mg/kg): 0% and 7.3%
- Pepsin activity ([1]; 20.0 mg/kg): 6.2 mg/mL and 5.1 mg/mL
- Acidity ([1]; 60.0 mg/kg): 61.0 meq H^+ /l and 62.0 meq H^+ /l
- Gastric juice secreted ([1]; 60.0 mg/kg): 3.7 mL and 4.5 mL
- Inhibition rate (acidity) ([1]; 60.0 mg/kg): 25.0% and 31.0%
- Inhibition rate (amount of acid discharged) ([1]; 60.0 mg/kg): 55.0% and 45.0%
- Inhibition rate (gastric juice secreted) ([1]; 60.0 mg/kg): 36.0% and 29.0%
- Pepsin activity ([1]; 60.0 mg/kg): 6.3 mg/mL
- Amount of acid discharged ([1]; Table 3, 6.7 mg/kg): 79.0 μEq/H
- Amount of acid discharged ([1]; Table 3, 20.0 mg/kg): 57.0 μEq/H
- Amount of acid discharged ([1]; Table 3, 60.0 mg/kg): 38.0 μEq/H
- Amount of acid discharged ([1]; Table 4, 6.7 mg/kg): 67.0 μEq/h
- Amount of acid discharged ([1]; Table 4, 20.0 mg/kg): 61.0 μEq/h
- Amount of acid discharged ([1]; Table 4, 60.0 mg/kg): 47.0 μEq/h
- Rate of control of the amount of acid discharged ([1]; Table 5, 6.7 mg/kg, ten rats): 2.5%
- Rate of control of the amount of pepsin discharged ([1]; Table 5, 6.7 mg/kg, ten rats): -6.1%
- Rate of inhibition of acidity ([1]; Table 5, 6.7 mg/kg, ten rats): 2.9%
- Rate of inhibition of the secretion of gastric juice ([1]; Table 5, 6.7 mg/kg, ten rats): 3.8%
- Rate of control of the amount of acid discharged ([1]; Table 5, 20.0 mg/kg, ten rats): 25.6%
- Rate of control of the amount of pepsin discharged ([1]; Table 5, 20.0 mg/kg, ten rats): 6.1%
- Rate of inhibition of acidity ([1]; Table 5, 20.0 mg/kg, ten rats): 12.4%
- Rate of inhibition of the secretion of gastric juice ([1]; Table 5, 20.0 mg/kg, ten rats): 7.7%
- Rate of control of the amount of acid discharged ([1]; Table 5, 60.0 mg/kg, ten rats): 51.1%
- Rate of control of the amount of pepsin discharged ([1]; Table 5, 60.0 mg/kg, ten rats): 4.5%
- Rate of inhibition of acidity ([1]; Table 5, 60.0 mg/kg, ten rats): 30.9%
- Rate of inhibition of the secretion of gastric juice ([1]; Table 5, 60.0 mg/kg, ten rats): 28.8%
- Inhibition rate (ulcer) ([2]; 100 mg/kg): 10%
- Inhibition rate (ulcer) ([2]; 200 mg/kg): 60%

Compound: Nc1nnc(NCCCOc2cccc(CN3CCCCC3)c2)s1 [2-N-{3-[3-(1-piperidinomethyl)phenoxy]propyl}amino-5-amino-1,3,4-thiadiazole]
- LD50 ([3]; intravenous injection): 53.2 mg/kg
- LD50 ([3]; po, peroral): 1220 mg/kg
- LD50 ([4]; intravenous injection): 91.6 mg/kg
- LD50 ([4]; po, peroral): 1410 mg/kg

Compound: Sc1nnc(NCCCOc2cccc(CN3CCCCC3)c2)s1 [H2 --37, 2-N-{3-[3-(1-piperidinomethyl)phenoxy]propyl}amino-5-mercapto-1,3,4-thiadiazole]
- Acidity ([1]; 6.7 mg/kg): 85.0 meq H^+ /l
- Gastric juice secreted ([1]; 6.7 mg/kg): 4.6 mL
- Inhibition rate (acidity) ([1]; 6.7 mg/kg): 4.5%
- Inhibition rate (amount of acid discharged) ([1]; 6.7 mg/kg): 22.0%
- Inhibition rate (gastric juice secreted) ([1]; 6.7 mg/kg): 27.0%
- Inhibition rate (pepsin activity) ([1]; 6.7 mg/kg): -7.3%
- Pepsin activity ([1]; 6.7 mg/kg): 5.9 mg/mL
- Acidity ([1]; 20.0 mg/kg): 81.0 meq H^+ /l
- Gastric juice secreted ([1]; 20.0 mg/kg): 5.2 mL
- Inhibition rate (acidity) ([1]; 20.0 mg/kg): 9.0%
- Inhibition rate (amount of acid discharged) ([1]; 20.0 mg/kg): 21.0%
- Inhibition rate (gastric juice secreted) ([1]; 20.0 mg/kg): 18.0%
- Inhibition rate (pepsin activity) ([1]; 20.0 mg/kg): -7.3%
- Pepsin activity ([1]; 20.0 mg/kg): 5.9 mg/mL
- Acidity ([1]; 60.0 mg/kg): 67.0 meq H^+ /l
- Gastric juice secreted ([1]; 60.0 mg/kg): 3.6 mL
- Inhibition rate (acidity) ([1]; 60.0 mg/kg): 24.0%
- Inhibition rate (amount of acid discharged) ([1]; 60.0 mg/kg): 57.0%
- Inhibition rate (gastric juice secreted) ([1]; 60.0 mg/kg): 43.0%
- Inhibition rate (pepsin activity) ([1]; 60.0 mg/kg): 1.8%
- Pepsin activity ([1]; 60.0 mg/kg): 5.4 mg/mL
- Amount of acid discharged ([1]; Table 4, 6.7 mg/kg): 67.0 μEq/h
- Amount of acid discharged ([1]; Table 4, 20.0 mg/kg): 68.0 μEq/h
- Amount of acid discharged ([1]; Table 4, 60.0 mg/kg): 37.0 μEq/h

Compound: Nc1nnc(NCCCOc2cccc(CN3CCCCC3)c2)s1 [TAS, 2-N-{3-[3-(1-piperidinomethyl)phenoxy]propyl}-amino-5-amino-1,3,4-thiadiazole hydrochloride]
- Rate of control of the amount of acid discharged ([1]; Table 5, 6.7 mg/kg, ten rats): 85.7%
- Rate of control of the amount of pepsin discharged ([1]; Table 5, 6.7 mg/kg, ten rats): 13.6%
- Rate of inhibition of acidity ([1]; Table 5, 6.7 mg/kg, ten rats): 67.4%
- Rate of inhibition of the secretion of gastric juice ([1]; Table 5, 6.7 mg/kg, ten rats): 57.7%
- Rate of control of the amount of acid discharged ([1]; Table 5, 20.0 mg/kg, ten rats): 91.4%
- Rate of control of the amount of pepsin discharged ([1]; Table 5, 20.0 mg/kg, ten rats): 25.8%
- Rate of inhibition of acidity ([1]; Table 5, 20.0 mg/kg, ten rats): 74.0%
- Rate of inhibition of the secretion of gastric juice ([1]; Table 5, 20.0 mg/kg, ten rats): 65.4%
- Rate of control of the amount of acid discharged ([1]; Table 5, 60.0 mg/kg, ten rats): 100%
- Rate of control of the amount of pepsin discharged ([1]; Table 5, 60.0 mg/kg, ten rats): 86.4%
- Rate of inhibition of acidity ([1]; Table 5, 60.0 mg/kg, ten rats): 100%
- Rate of inhibition of the secretion of gastric juice ([1]; Table 5, 60.0 mg/kg, ten rats): 82.7%
- Rate of control of the amount of acid discharged ([1]; Table 6, 0.7 mg/kg): 40.2%
- Rate of control of the amount of pepsin discharged ([1]; Table 6, 0.7 mg/kg): -1.3%
- Rate of inhibition of acidity ([1]; Table 6, 0.7 mg/kg): 22.4%
- Rate of inhibition of the secretion of gastric juice ([1]; Table 6, 0.7 mg/kg): 23.51%
- Rate of control of the amount of acid discharged ([1]; Table 6, 6.7 mg/kg): 81.5%
- Rate of control of the amount of pepsin discharged ([1]; Table 6, 6.7 mg/kg): 15.2%
- Rate of inhibition of acidity ([1]; Table 6, 6.7 mg/kg): 65.7%
- Rate of inhibition of the secretion of gastric juice ([1]; Table 6, 6.7 mg/kg): 52.9%
- Rate of control of the amount of acid discharged ([1]; Table 6, 20.0 mg/kg): 91.5%
- Rate of control of the amount of pepsin discharged ([1]; Table 6, 20.0 mg/kg): 30.4%
- Rate of inhibition of acidity ([1]; Table 6, 20.0 mg/kg): 75.0%
- Rate of inhibition of the secretion of gastric juice ([1]; Table 6, 20.0 mg/kg): 66.7%
- Inhibition rate (ulcer) ([2]; 6.3 mg/kg): 60.0%
- Inhibition rate (ulcer) ([2]; 12.5 mg/kg): 90.0%
- Inhibition rate (ulcer) ([2]; 25.0 mg/kg): 95.0%
- Inhibition rate (ulcer) ([2]; 50.0 mg/kg): 100%
- antiulcer effects compared with 200 mg/kg of cimetidine or ranitidine ([2]; 12.5 to 50 mg/kg): far superior
